According to US7662857B2, “Diagnostic agents for pancreatic exocrine function” (Tokyo Gas Company Limited, priority 2001, dated 2010):

Experiments:
[1] = tested on: pancreatic exocrine function; test: 13C-dipeptide breath test in chronic pancreatitis rats (oleic acid injected into pancreatic duct); format: in vivo, rat; details: oral 35 μmol/kg, mean±SD
Description: (§1) Overnight-fasted rats (male, Wistar, 8-week old) in the awake state were individually fixed in a rat holder of a microwave irradiation apparatus. The breath was collected at a rate of about 100 to 300 ml/min using a stroke pump (Variable Stroke Pump VS-500; Shibata Kagaku Kogyo), and the CO2 concentration therein was maintained at about 3%. A Perma Pure drier (MD-050-12P; Perma Pure INC.) was set between the rat holder and the stroke pump to remove water vapor from the breath. When the CO2 concentration was stabilized, the rat was temporarily released from the rat holder. A ^13C-labeled dipeptide or a sodium salt thereof each dissolved in distilled water was administered to the stomach of the rat using an oral probe [dose: 35 μmol/kg (5 ml/kg)]. The breath was sampled with a syringe every 5 min until up to 20 min. A 15 ml sample was transferred from the syringe into a vacuum vial (10 ml), sealed and subjected to automated analysis by GC-MS (Breath MAT) [FinniganMAT]. Δ^13C(‰) was calculated from δ^13C values which are ^13C values of a sample (i.e. differences from the standard substance PDB) using the following formula. Δ^13C(‰)=(δ^13C)tmin−((δ^13C)0 min <Breath MAT Measuring Conditions>
Chronic pancreatitis rats were created according to the method of Mundlos et al., Pancreas 1:29 (1986). Oleic acid was injected into the pancreatic duct of 5-week old Wistar male rats. After breeding for 3 weeks, they were used in ^13C-dipeptide breath tests.
(§2) As in Example 12, Bz-Phe-(^13C-Ala)-ONa [dose: 12.6 mg/kg (35 μmol/kg)], Bz-Gln-(^13C-Ala)-ONa [dose: 12.0 mg/kg (35 μmol/kg)], Bz-Val-(^13C-Ala)-ONa [dose: 11.0 mg/kg (35 μmol/kg)], Bz-Tyr-(^13C-Ala)-ONa [dose: 13.2 mg/kg (35 μmol/kg)], Bz-Met-(^13C-Ala)-ONa [dose: 12.1 mg/kg (35 μmol/kg)], Bz-Ser-(^13C-Ala)-ONa [dose: 10.6 mg/kg (35 μmol/kg)], Bz-Thr-(^13C-Ala)-ONa [dose: 11.0 mg/kg (35 μmol/kg)] or Boc-Phe-(^13C-Ala)-ONa [dose: 8.84 mg/kg (24.6 μmol/kg)] was administered orally to normal rats and chronic pancreatitis rats. Then, the time course of the degree of increase of the ^13C concentration in exhaled CO2 (Δ^13C(‰)) was measured.

[2] = tested on: pancreatic exocrine function; test: 13C-dipeptide breath test in normal rats (Δ13C in exhaled CO2 after oral administration); format: in vivo, rat; details: for Δ^13C(‰) peak value / Peak time: oral 35 μmol/kg (5 ml/kg); for Δ^13C(‰) peak value: exhaled CO2; for Δ^13C(‰) value at 5 min after the administration / Δ^13C(‰) value at 10 min after the administration / Δ^13C(‰) value at 15 min after the administration / Δ^13C(‰) value at 20 min after the administration: normal rats, mean±SD; for Δ^13C(‰) value at 5 min after the administration / Δ^13C(‰) value at 10 min after the administration / Δ^13C(‰) value at 15 min after the administration / Δ^13C(‰) peak value compared with the peak value of Bz-Ala-(^13C-Ala)-ONa / Δ^13C(‰) value at 20 min after the administration: oral 35 μmol/kg; for Δ^13C(‰) peak value compared with the peak value of Bz-Ala-(^13C-Ala)-ONa: comparison in words
Description: as §1
Apparatus: Breath MAT plus (Finningan)
Using Ac-Met-(^13C-Ala)-ONa, Z-Met-(^13C-Ala)-ONa, Boc-Met-(^13C-Ala)-ONa or Boc-Phe-(^13C-Ala)-ONa [dose: 35 μmol/kg (5 ml/kg)], ^13C-breath tests were carried out in the same manner as in Example 12. The resultant Δ^13C(‰) peak values were compared with the Δ^13C(‰) peak value in the Bz-Ala-(^13C-Ala)-ONa breath test.
as §2

[3] = Table 1, overnight-fasted Wistar rats
[4] = Table 1, overnight-fasted Wistar rats, peak in time course of Δ13C(‰) up to 20 min

Δ^13C(‰) value at 5 min after the administration [1] | Δ^13C(‰) value at 10 min after the administration [1] | Δ^13C(‰) value at 15 min after the administration [1] | Δ^13C(‰) peak value [2, 3] | Peak time [2, 4] [min] | Δ^13C(‰) value at 5 min after the administration [2] | Δ^13C(‰) value at 10 min after the administration [2] | Δ^13C(‰) value at 15 min after the administration [2] | Δ^13C(‰) peak value compared with the peak value of Bz-Ala-(^13C-Ala)-ONa ([2]; rats) | Δ^13C(‰) value at 20 min after the administration [1] | Δ^13C(‰) value at 20 min after the administration [2] | Peak time ([2]; Table 2, rats) [min] | Δ^13C(‰) peak value ([2]; Table 2, rats) | SMILES
3.41±3.44 ‰ | 15.32±13.04 ‰ | 28.06±19.01 ‰ | 54.56 ‰ | 10 | 13.86±4.98 ‰ | 54.56±14.10 ‰ | 51.27±3.21 ‰ | higher | – | – | – | – | C[C@H](NC(=O)[C@H](CCC(N)=O)NC(=O)c1ccccc1)[13C](=O)[O-].[Na+] [Na salt of Bz-Gln-(^13C-Ala), N-benzoyl-L-glutaminyl-^13C-L-alanine]
– | – | – | 32.14 ‰ | 20 | – | – | – | – | – | – | – | – | C[C@H](NC(=O)CNC(=O)c1ccccc1)[13C](=O)[O-].[Na+] [Na salt of Bz-Gly-(^13C-Ala), reference compound]
– | – | – | 36.17 ‰ | 20 | – | – | – | – | – | – | – | – | C[C@H](NC(=O)[C@H](Cc1cnc[nH]1)NC(=O)c1ccccc1)[13C](=O)[O-].[Na+] [Na salt of Bz-His-(^13C-Ala), reference compound]
– | – | – | 39.82 ‰ | 20 | – | – | – | – | – | – | – | – | CC[C@H](C)[C@H](NC(=O)c1ccccc1)C(=O)N[C@@H](C)[13C](=O)[O-].[Na+] [Na salt of Bz-Ile-(^13C-Ala), reference compound]
– | – | – | 42.77 ‰ | 15 | – | – | – | – | – | – | – | – | CC(C)C[C@H](NC(=O)c1ccccc1)C(=O)N[C@@H](C)[13C](=O)[O-].[Na+] [Na salt of Bz-Leu-(^13C-Ala), reference compound]
1.52±1.47 ‰ | 7.69±5.15 ‰ | 14.59±8.50 ‰ | 48.88 ‰ | 10 | 19.76±10.16 ‰ | 48.88±17.45 ‰ | 45.53±8.00 ‰ | higher | 20.25±9.43 ‰ | 38.58±3.79 ‰ | – | – | CSCC[C@H](NC(=O)c1ccccc1)C(=O)N[C@@H](C)[13C](=O)[O-].[Na+] [Na salt of Bz-Met-(^13C-Ala), N-benzoyl-L-methionyl-^13C-L-alanine]
4.17±3.95 ‰ | 14.56±10.79 ‰ | 22.80±12.36 ‰ | 55.62 ‰ | 10 | 29.32±13.57 ‰ | 55.62±6.62 ‰ | 45.44±3.44 ‰ | higher | – | – | – | – | C[C@H](NC(=O)[C@H](Cc1ccccc1)NC(=O)c1ccccc1)[13C](=O)[O-].[Na+] [Na salt of Bz-Phe-(^13C-Ala), N-benzoyl-L-phenylalanyl-^13C-L-alanine]
1.07±1.43 ‰ | 5.94±8.13 ‰ | 10.34±11.99 ‰ | 47.48 ‰ | 15 | 8.29±4.94 ‰ | 35.91±11.85 ‰ | 47.48±12.89 ‰ | higher | 12.80±11.97 ‰ | 43.04±5.30 ‰ | – | – | C[C@H](NC(=O)[C@H](CO)NC(=O)c1ccccc1)[13C](=O)[O-].[Na+] [Na salt of Bz-Ser-(^13C-Ala), N-benzoyl-L-seryl-^13C-L-alanine]
– | – | – | 39.76 ‰ | 15 | – | – | – | – | – | – | – | – | C[C@H](NC(=O)[C@H](Cc1c[nH]c2ccccc12)NC(=O)c1ccccc1)[13C](=O)[O-].[Na+] [Na salt of Bz-Trp-(^13C-Ala), reference compound]
– | – | – | – | – | – | – | – | higher | – | – | 15 | 48.71 ‰ | CSCC[C@H](NC(=O)OCc1ccccc1)C(=O)N[C@@H](C)[13C](=O)[O-].[Na+] [Na salt of Z-Met-(^13C-Ala), benzyloxycarbonyl-L-methionyl-^13C-L-alanine]
